# Test results reported in patent US20150197550A1 (UNIVERSITY OF ULSTER, priority 2012, published 2015).
# Square brackets hold non-standard residues; d marks the D form. Peptide text beside a SMILES is read from it.
# Columns and labels:
# [1] = Stability on incubation with mouse plasma for 8 h (RP-HPLC peak height); format: in vitro ADME; details: mouse, plasma
# Experimental: The samples were then separated on RP-HPLC and the peak height compared to the value at time=0 hours.
# [2] = human, in vivo; cited from earlier work
metabolised at 8 h [1] [%],Compound,half-life [2]
40.1,"CSCC[C@H](NC(=O)[C@H](Cc1ccc(O)cc1)NC(=O)[C@H](CCCCN)NC(=O)[C@H](CO)NC(=O)[C@H](Cc1ccc(O)cc1)NC(=O)[C@H](CC(=O)O)NC(=O)[C@H](CO)NC(=O)[C@@H](NC(=O)[C@H](Cc1ccccc1)NC(=O)[C@@H](NC(=O)CNC(=O)[C@H](CCC(=O)O)NC(=O)[C@@H](C)NC(=O)[C@@H](N)Cc1c[nH]cn1)[C@@H](C)O)[C@@H](C)O)C(=O)N[C@@H](CC(=O)O)C(=O)N[C@@H](CC(N)=O)C(=O)N[C@@H](CCCNC(=N)N)C(=O)N[C@@H](CCCNC(=N)N)C(=O)N[C@@H](C)C(=O)N[C@@H](CCCCN)C(=O)N[C@@H](CC(=O)O)C(=O)N[C@@H](Cc1ccccc1)C(=O)N[C@H](C(=O)N[C@@H](CCC(N)=O)C(=O)N[C@@H](Cc1c[nH]c2ccccc12)C(=O)N[C@@H](CC(C)C)C(=O)N[C@@H](CCSC)C(=O)N[C@@H](CC(N)=O)C(=O)N[C@H](C(=O)O)[C@@H](C)O)C(C)C [(D-Ala^2) dogfish glucagon, (D-A^2) dogfish glucagon] (H-H[dA]EGTFTSDYSKYMDNRRAKDFVQWLMNT-OH; N-terminus and C-terminus assumed)",
38.8,"CSCC[C@H](NC(=O)[C@H](Cc1ccc(O)cc1)NC(=O)[C@H](CCCCN)NC(=O)[C@H](CO)NC(=O)[C@H](Cc1ccc(O)cc1)NC(=O)[C@H](CC(=O)O)NC(=O)[C@H](CO)NC(=O)[C@@H](NC(=O)[C@H](Cc1ccccc1)NC(=O)[C@@H](NC(=O)CNC(=O)[C@H](CCC(=O)O)NC(=O)[C@H](CO)NC(=O)[C@@H](N)Cc1c[nH]cn1)[C@@H](C)O)[C@@H](C)O)C(=O)N[C@@H](CC(=O)O)C(=O)N[C@@H](CC(N)=O)C(=O)N[C@@H](CCCNC(=N)N)C(=O)N[C@@H](CCCNC(=N)N)C(=O)N[C@@H](C)C(=O)N[C@@H](CCCCN)C(=O)N[C@@H](CC(=O)O)C(=O)N[C@@H](Cc1ccccc1)C(=O)N[C@H](C(=O)N[C@@H](CCC(N)=O)C(=O)N[C@@H](Cc1c[nH]c2ccccc12)C(=O)N[C@@H](CC(C)C)C(=O)N[C@@H](CCSC)C(=O)N[C@@H](CC(N)=O)C(=O)N[C@H](C(=O)O)[C@@H](C)O)C(C)C [dogfish glucagon, Dogfish glucagon (1-29)] (H-HSEGTFTSDYSKYMDNRRAKDFVQWLMNT-OH; N-terminus and C-terminus assumed)",
,Glucagon-like peptide-1 [GLP-1],less than two

Compound,metabolised at 8 h [1] [%],half-life [2]
"CSCC[C@H](NC(=O)[C@H](Cc1ccc(O)cc1)NC(=O)[C@H](CCCCN)NC(=O)[C@H](CO)NC(=O)[C@H](Cc1ccc(O)cc1)NC(=O)[C@H](CC(=O)O)NC(=O)[C@H](CO)NC(=O)[C@@H](NC(=O)[C@H](Cc1ccccc1)NC(=O)[C@@H](NC(=O)CNC(=O)[C@H](CCC(=O)O)NC(=O)[C@@H](C)NC(=O)[C@@H](N)Cc1c[nH]cn1)[C@@H](C)O)[C@@H](C)O)C(=O)N[C@@H](CC(=O)O)C(=O)N[C@@H](CC(N)=O)C(=O)N[C@@H](CCCNC(=N)N)C(=O)N[C@@H](CCCNC(=N)N)C(=O)N[C@@H](C)C(=O)N[C@@H](CCCCN)C(=O)N[C@@H](CC(=O)O)C(=O)N[C@@H](Cc1ccccc1)C(=O)N[C@H](C(=O)N[C@@H](CCC(N)=O)C(=O)N[C@@H](Cc1c[nH]c2ccccc12)C(=O)N[C@@H](CC(C)C)C(=O)N[C@@H](CCSC)C(=O)N[C@@H](CC(N)=O)C(=O)N[C@H](C(=O)N1CCC[C@H]1C(=O)N[C@@H](CO)C(=O)N[C@@H](CO)C(=O)NCC(=O)N[C@@H](C)C(=O)N1CCC[C@H]1C(=O)N1CCC[C@H]1C(=O)N1CCC[C@H]1C(=O)N[C@@H](CO)C(N)=O)[C@@H](C)O)C(C)C [(D-A^2) dogfish glucagon exendin, (D-A^2) dogfish glucagon exendin end] (H-H[dA]EGTFTSDYSKYMDNRRAKDFVQWLMNTPSSGAPPPS-NH2; N-terminus assumed)",18.3,
